# In patent US20240358693A1, “METHODS OF TREATING PAIN” (Aisa Pharma, Inc., priority 2023, published 2024):
# Test system: participants with SSc-RP
# Test: Scleroderma Health Assessment Questionnaire (SHAQ): disability indices and visual analog scales
# Type: in vivo, human
# Text: The standard, validated, patient reported outcome measures tool for SSc patients, the Scleroderma Health Assessment Questionnaire (SHAQ), will be used to assess the participant qualify of life. Details are attached in the Appendix. The participant quality of life will be scored, and a disability index calculated for each questionnaire completed by the patient at Screening and each in-clinic visit. The absolute change in participant quality of life from baseline to the end of each dosing period will be calculated similar to frequency data as before.
# The SHAQ includes a Raynaud's VAS, which will be reported at screening and each in-clinic visit. The absolute change in Raynaud-VAS, assessed by the participants response to the SHAQ question ‘In the past 7 days, how much have your Raynaud's interfered with your daily activities?’ at baseline and the end of each dosing period will be calculated similar to frequency data as before.
# The SHAQ is used to calculate a Disability Index to assess the participant qualify of life. The eight categories assessed by the Disability Index are 1) dressing and grooming, 2) arising, 3) eating, 4) walking, 5) hygiene, 6) reach, 7) grip, and 8) common daily activities. For each of these categories, patients report the amount of difficulty they have in performing two or three specific activities.
# There are four possible responses for the Disability Index questions: • Without any difficulty=0 • With some difficulty=1 • With much difficulty=2 • Unable to do=3. • The highest score reported by the patient for any component question of the eight categories determines the score for that category. • If a component question is left blank or the response is too ambiguous to assign a score, then the score for that category is determined by the remaining completed question(s). • If all component questions are blank or if more than one answer is given, then follow up with the respondent is required. • If the respondent's mark is between the response columns, then move it to the closest one. If it's directly between the two, move it to the higher one.
# Each of the disability items on the SHAQ has a companion aids/devices variable that is used to record what type(s) of assistance, if any, the participant uses for his/her usual activities. These variables (see below) are coded as follows: • 0=No assistance is needed. • 1=A special device is used by the patient in his/her usual activities. • 2=The patient usually needs help from another person. • 3=The patient usually needs BOTH a special device AND help from another person.
# The scoring variables and scoring rules permit the computation of two disability indices, the Standard Disability Index and the Alternative Disability Index.
# This question results in a new set of category scores that are computed by adjusting the score for each category, if necessary, based on the patient's use of an aid or device or assistance for that category. If either devices and/or help from another person are checked for a category, the score is set to “2”, unless the score is already “3” (i.e., scores of “0” or “1” are increased to “2”). For example, if the highest score for the dressing category is “1”, and the patient says they use a device for dressing, the computed category score would be “2”. The sum of the computed categories scores is then calculated and divided by the number of categories answered. This gives a score in the 0 to 3 range.
# The aid and device variables are not used to calculate the alternative disability index; it is calculated by adding the scores for each of the categories and dividing by the number of categories answered. This gives a score in the 0 to 3 range.
# The standard, validated, patient reported outcome measures tool for SSc patients, the SHAQ, was collected at the time points specified in the study schedules (FIG. 2 and FIGS. 4A and 4B) to assess the participant's quality of life. The SHAQ included a Raynaud's VAS that will also be reported separately.
# [1] = Cilnidipine 10 mg, Day 12, PP Population Part A, SSc patients
# [2] = Cilnidipine 10 mg, Day 12, PP Population, Part A
# [3] = Cilnidipine 10 mg, PP Population Part A, SSc patients
# [4] = Cilnidipine 20 mg (N = 3), Modified ITT, Part A
# [5] = Cilnidipine 20 mg (N = 3), patients with diagnosis of SSc, sensitivity analysis, Modified ITT, Part A
smiles,measurement,setting,value
"COCCOC(=O)C1=C(C)NC(C)=C(C(=O)OC/C=C/c2ccccc2)C1c1cccc([N+](=O)[O-])c1 (stereo not shown) [Cilnidipine, cilnidipine]","SHAQ Visual Analogue Scale - Finger Ulcers, Change from Baseline, Mean",[1],−0.425
same,"SHAQ Visual Analogue Scale - Finger Ulcers, Change from Baseline, Median",[1],−0.350
same,"SHAQ Visual Analogue Scale - Finger Ulcers, Percent Change from Baseline, Mean",[1],−69.44%
same,"SHAQ Visual Analogue Scale - Finger Ulcers, Percent Change from Baseline, Median",[1],−69.44%
same,"SHAQ Visual Analogue Scale - Intestinal Problems, Change from Baseline, Mean",[1],−1.875
same,"SHAQ Visual Analogue Scale - Intestinal Problems, Change from Baseline, Median",[1],−1.550
same,"SHAQ Visual Analogue Scale - Intestinal Problems, Percent Change from Baseline, Mean",[1],−77.37%
same,"SHAQ Visual Analogue Scale - Intestinal Problems, Percent Change from Baseline, Median",[1],−88.00%
same,"SHAQ Visual Analogue Scale - Overall Disease Severity, Change from Baseline, Mean",[1],−0.900
same,"SHAQ Visual Analogue Scale - Overall Disease Severity, Change from Baseline, Median",[1],−0.950
same,"SHAQ Visual Analogue Scale - Overall Disease Severity, Percent Change from Baseline, Mean",[1],−56.96%
same,"SHAQ Visual Analogue Scale - Overall Disease Severity, Percent Change from Baseline, Median",[1],−44.12%
same,"SHAQ Visual Analogue Scale - Pain, Change from Baseline, Mean",[1],−0.100
same,"SHAQ Visual Analogue Scale - Pain, Change from Baseline, Median",[1],0.000
same,"SHAQ Visual Analogue Scale - Pain, Percent Change from Baseline, Mean",[1],−9.88%
same,"SHAQ Visual Analogue Scale - Pain, Percent Change from Baseline, Median",[1],0.00%
same,"SHAQ Visual Analogue Scale - Raynaud's, Change from Baseline, Mean",[1],0.325
same,"SHAQ Visual Analogue Scale - Raynaud's, Change from Baseline, Median",[1],0.350
same,"SHAQ Visual Analogue Scale - Raynaud's, Percent Change from Baseline, Mean",[1],11.36%
same,"SHAQ Visual Analogue Scale - Raynaud's, Percent Change from Baseline, Median",[1],−2.27%
same,"SHAQ Alternative Disability Index: Change from Baseline, Mean",[2],0.063
same,"SHAQ Alternative Disability Index: Change from Baseline, Median",[2],0.000
same,"SHAQ Alternative Disability Index: In-Clinic Visit (Day 12), Mean",[2],0.563
same,"SHAQ Alternative Disability Index: In-Clinic Visit (Day 12), Median",[2],0.500
same,"SHAQ Alternative Disability Index: Percent Change from Baseline, Mean",[2],15.87%
same,"SHAQ Alternative Disability Index: Percent Change from Baseline, Median",[2],15.87%
same,"SHAQ Standard Disability Index: Change from Baseline, Mean",[2],0.000
same,"SHAQ Standard Disability Index: Change from Baseline, Median",[2],0.000
same,"SHAQ Standard Disability Index: In-Clinic Visit (Day 12), Mean",[2],0.656
same,"SHAQ Standard Disability Index: In-Clinic Visit (Day 12), Median",[2],0.563
same,"SHAQ Standard Disability Index: Percent Change from Baseline, Mean",[2],0.00%
same,"SHAQ Standard Disability Index: Percent Change from Baseline, Median",[2],0.00%
same,"SHAQ Visual Analogue Scale - Pain: Change from Baseline, Mean",[2],−0.100
same,"SHAQ Visual Analogue Scale - Pain: Change from Baseline, Median",[2],0.000
same,"SHAQ Visual Analogue Scale - Pain: In-Clinic Visit (Day 12), Mean",[2],1.875
same,"SHAQ Visual Analogue Scale - Pain: In-Clinic Visit (Day 12), Median",[2],1.950
same,"SHAQ Visual Analogue Scale - Pain: Percent Change from Baseline, Mean",[2],−9.88%
same,"SHAQ Visual Analogue Scale - Pain: Percent Change from Baseline, Median",[2],0.00%
same,"SHAQ Visual Analogue Scale - Breathing Problems, In-Clinic Visit (Day 12), Mean",[3],1.575
same,"SHAQ Visual Analogue Scale - Breathing Problems, In-Clinic Visit (Day 12), Median",[3],0.000
same,"SHAQ Visual Analogue Scale - Finger Ulcers, In-Clinic Visit (Day 12), Mean",[3],0.275
same,"SHAQ Visual Analogue Scale - Finger Ulcers, In-Clinic Visit (Day 12), Median",[3],0.000
same,"SHAQ Visual Analogue Scale - Intestinal Problems, In-Clinic Visit (Day 12), Mean",[3],1.100
same,"SHAQ Visual Analogue Scale - Intestinal Problems, In-Clinic Visit (Day 12), Median",[3],0.300
same,"SHAQ Visual Analogue Scale - Overall Disease Severity, In-Clinic Visit (Day 12), Mean",[3],1.825
same,"SHAQ Visual Analogue Scale - Overall Disease Severity, In-Clinic Visit (Day 12), Median",[3],1.050
same,"SHAQ Visual Analogue Scale - Pain, In-Clinic Visit (Day 12), Mean",[3],1.875
same,"SHAQ Visual Analogue Scale - Pain, In-Clinic Visit (Day 12), Median",[3],1.950
same,"SHAQ Visual Analogue Scale - Raynaud's, In-Clinic Visit (Day 12), Mean",[3],1.925
same,"SHAQ Visual Analogue Scale - Raynaud's, In-Clinic Visit (Day 12), Median",[3],1.700
same,"SHAQ Overall Severity: Baseline, Mean",[4],2.667
same,"SHAQ Overall Severity: Baseline, Median",[4],2.900
same,"SHAQ Overall Severity: Change from Baseline, Mean",[4],"−1.633,"
same,"SHAQ Overall Severity: Change from Baseline, Median",[4],−1.600
same,"SHAQ Overall Severity: Day 12, Mean",[4],1.033
same,"SHAQ Overall Severity: Day 12, Median",[4],1.200
same,"SHAQ Overall Severity: Percent Change from Baseline, Mean",[4],−62.64%
same,"SHAQ Overall Severity: Percent Change from Baseline, Median",[4],−60.00%
same,"SHAQ Standard Disability Index: Baseline, Mean",[5],0.250
same,"SHAQ Standard Disability Index: Baseline, Median",[5],0.375
same,"SHAQ Standard Disability Index: Change from Baseline, Mean",[5],−0.125
